Assay results reported in patent US11267845B2, “Inhibitors of CD73-mediated immunosuppression” (ARCUS BIOSCIENCES, INC., priority 2016, dated 2022).
pIC50: −log10 of the molar value.

What follows are compounds tested against T1, CD73 (Homo sapiens, UniProt P21589) (assay: CD73 inhibition (Potency: CD73 IC50)).
T1 sequence (P21589 27-549): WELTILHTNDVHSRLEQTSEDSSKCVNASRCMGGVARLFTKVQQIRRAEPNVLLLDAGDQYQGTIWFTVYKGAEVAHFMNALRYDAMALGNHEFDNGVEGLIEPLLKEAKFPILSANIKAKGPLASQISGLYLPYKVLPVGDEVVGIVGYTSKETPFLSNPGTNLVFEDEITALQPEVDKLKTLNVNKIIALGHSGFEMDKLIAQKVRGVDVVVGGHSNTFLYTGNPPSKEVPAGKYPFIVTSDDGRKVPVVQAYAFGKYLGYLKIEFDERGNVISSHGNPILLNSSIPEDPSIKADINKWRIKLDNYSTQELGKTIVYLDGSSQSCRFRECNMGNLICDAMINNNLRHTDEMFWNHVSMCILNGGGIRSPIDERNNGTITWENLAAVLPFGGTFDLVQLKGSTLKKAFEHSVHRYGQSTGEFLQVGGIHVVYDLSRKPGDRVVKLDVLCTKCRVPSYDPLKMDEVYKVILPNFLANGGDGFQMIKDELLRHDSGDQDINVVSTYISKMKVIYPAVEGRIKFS
Type: biochemical

SMILES | pIC50
COC(=O)OCOP(=O)(CC(=O)N(C)C[C@H]1O[C@@H](n2cnc3c(NC4CCCC4)nc(Cl)nc32)[C@H](O)[C@@H]1O)OCOC(=O)OC [AA] | < 6.00
COC(=O)OCOP(=O)(O)CC(=O)N(C)C[C@H]1O[C@@H](n2cnc3c(NC4CCCC4)nc(Cl)nc32)[C@H](O)[C@@H]1O [AB] | < 6.00
CN(C[C@H]1O[C@@H](n2cnc3c(NC4CCCC4)nc(Cl)nc32)[C@H](O)[C@@H]1O)C(=O)CP(=O)(OCOC(=O)OCC(C)(C)C)OCOC(=O)OCC(C)(C)C [AC] | < 6.00
CN(C[C@H]1O[C@@H](n2cnc3c(NC4CCCC4)nc(Cl)nc32)[C@H](O)[C@@H]1O)C(=O)CP(=O)(O)OCOC(=O)OCC(C)(C)C [AD] | < 6.00
COCCOC(=O)OCOP(=O)(CC(=O)N(C)C[C@H]1O[C@@H](n2cnc3c(NC4CCCC4)nc(Cl)nc32)[C@H](O)[C@@H]1O)OCOC(=O)OCCOC [AE] | < 6.00
COCCOC(=O)OCOP(=O)(O)CC(=O)N(C)C[C@H]1O[C@@H](n2cnc3c(NC4CCCC4)nc(Cl)nc32)[C@H](O)[C@@H]1O [AF] | < 6.00
CN(C[C@H]1O[C@@H](n2cnc3c(NC4CCCC4)nc(Cl)nc32)[C@H](O)[C@@H]1O)C(=O)CP(=O)(OCOC(=O)C(C)(C)C)OCOC(=O)C(C)(C)C [AG] | < 6.00
CN(C[C@H]1O[C@@H](n2cnc3c(NC4CCCC4)nc(Cl)nc32)[C@H](O)[C@@H]1O)C(=O)CP(=O)(O)OCOC(=O)C(C)(C)C [AH] | < 6.00
O=C(CP(=O)(O)O)N(CC1CC1)C[C@H]1O[C@@H](n2cnc3c(NC4CCCC4)nc(Cl)nc32)[C@H](O)[C@@H]1O [AI] | > 7.00
CC(C)OC(=O)OCOP(=O)(CC(=O)N(CC1CC1)C[C@H]1O[C@@H](n2cnc3c(NC4CCCC4)nc(Cl)nc32)[C@H](O)[C@@H]1O)OCOC(=O)OC(C)C [AJ] | < 6.00
CC(C)OC(=O)OCOP(=O)(O)CC(=O)N(CC1CC1)C[C@H]1O[C@@H](n2cnc3c(NC4CCCC4)nc(Cl)nc32)[C@H](O)[C@@H]1O [AK] | < 6.00
CN(C[C@H]1O[C@@H](n2cnc3c(N[C@H]4CCOC4)nc(Cl)nc32)[C@H](O)[C@@H]1O)C(=O)CP(=O)(O)O [AL] | 6.00 to 7.00
CC(C)OC(=O)OCOP(=O)(CC(=O)N(C)C[C@H]1O[C@@H](n2cnc3c(N[C@H]4CCOC4)nc(Cl)nc32)[C@H](O)[C@@H]1O)OCOC(=O)OC(C)C [AM] | < 6.00
CC(C)OC(=O)OCOP(=O)(O)CC(=O)N(C)C[C@H]1O[C@@H](n2cnc3c(N[C@H]4CCOC4)nc(Cl)nc32)[C@H](O)[C@@H]1O [AN] | < 6.00
COCCOC(=O)OCOP(=O)(CC(=O)N(C)C[C@H]1O[C@@H](n2cnc3c(N[C@H]4CCOC4)nc(Cl)nc32)[C@H](O)[C@@H]1O)OCOC(=O)OCCOC [AO] | < 6.00
CCOC(=O)OCOP(=O)(CC(=O)N(C)C[C@H]1O[C@@H](n2cnc3c(N[C@H]4CCOC4)nc(Cl)nc32)[C@H](O)[C@@H]1O)OCOC(=O)OCC [AP] | < 6.00
CCOC(=O)OCOP(=O)(O)CC(=O)N(C)C[C@H]1O[C@@H](n2cnc3c(N[C@H]4CCOC4)nc(Cl)nc32)[C@H](O)[C@@H]1O [AQ] | < 6.00
CN(C[C@H]1O[C@@H](n2cnc3c(N[C@H]4CCOC4)nc(Cl)nc32)[C@H](O)[C@@H]1O)C(=O)CP(=O)(OCOC(=O)OCC(C)(C)C)OCOC(=O)OCC(C)(C)C [AR] | < 6.00
CN(C[C@H]1O[C@@H](n2cnc3c(N[C@H]4CCOC4)nc(Cl)nc32)[C@H](O)[C@@H]1O)C(=O)CP(=O)(O)OCOC(=O)OCC(C)(C)C [AS] | < 6.00
O=C(CP(=O)(O)O)NC[C@H]1O[C@@H](n2cnc3c(NC4CCCC4)nc(Cl)nc32)[C@H](O)[C@@H]1O [A] | 6.00 to 7.00
CC(C)N(C[C@H]1O[C@@H](n2cnc3c(NC4CCCC4)nc(Cl)nc32)[C@H](O)[C@@H]1O)C(=O)CP(=O)(O)O [B] | 6.00 to 7.00
CCN(C[C@H]1O[C@@H](n2cnc3c(NC4CCCC4)nc(Cl)nc32)[C@H](O)[C@@H]1O)C(=O)CP(=O)(O)O [C] | > 7.00
O=C(CP(=O)(O)O)N(Cc1ccccc1)C[C@H]1O[C@@H](n2cnc3c(NC4CCCC4)nc(Cl)nc32)[C@H](O)[C@@H]1O [D] | > 7.00

SMILES | pIC50
O=C(O)CN(C[C@H]1O[C@@H](n2cnc3c(NC4CCCC4)nc(Cl)nc32)[C@H](O)[C@@H]1O)C(=O)CP(=O)(O)O [E] | > 7.00
CC(C)OC(=O)[C@H](C)NP(=O)(CC(=O)N(C)C[C@H]1O[C@@H](n2cnc3c(NC4CCCC4)nc(Cl)nc32)[C@H](O)[C@@H]1O)N[C@@H](C)C(=O)OC(C)C [Example P] | < 6.00
O=C(CP(=O)(O)O)N(CCO)C[C@H]1O[C@@H](n2cnc3c(NC4CCCC4)nc(Cl)nc32)[C@H](O)[C@@H]1O [F] | > 7.00
CN(C[C@H]1O[C@@H](n2cnc3c(NC4CCCC4)nc(Cl)nc32)[C@@H](F)[C@@H]1O)C(=O)CP(=O)(O)O [G] | < 6.00
CCN(C[C@H]1O[C@@H](n2cnc3c(N(C)C4CCCC4)nc(Cl)nc32)[C@H](O)[C@@H]1O)C(=O)CP(=O)(O)O [H] | > 7.00
CN(c1nc(Cl)nc2c1ncn2[C@@H]1O[C@H](CN(CC2CC2)C(=O)CP(=O)(O)O)[C@@H](O)[C@H]1O)C1CCCC1 [I] | > 7.00
CN(C[C@H]1O[C@@H](n2ncc3c(NC4CCCC4)nc(Cl)nc32)[C@H](O)[C@@H]1O)C(=O)CP(=O)(O)O [J] | 6.00 to 7.00
O=C(CP(=O)(O)O)N(CC1CC1)C[C@H]1O[C@@H](n2ncc3c(NC4CCCC4)nc(Cl)nc32)[C@H](O)[C@@H]1O [K] | > 7.00
CN(C[C@H]1O[C@@H](n2cnc3c(NC4CCCC4)nc(Cl)nc32)[C@H](O)[C@@H]1O)C(=O)CP(=O)(O)O [L] | > 7.00
CC(C)OC(=O)[C@H](C)NP(=O)(CC(=O)N(C)C[C@H]1O[C@@H](n2cnc3c(NC4CCCC4)nc(Cl)nc32)[C@H](O)[C@@H]1O)Oc1ccccc1 (stereo partly drawn) [M] | < 6.00
COC(=O)[C@H](C)NP(=O)(CC(=O)N(C)C[C@H]1O[C@@H](n2cnc3c(NC4CCCC4)nc(Cl)nc32)[C@H](O)[C@@H]1O)Oc1ccccc1 (stereo partly drawn) [N] | < 6.00
CC(C)OC(=O)[C@H](C)NP(=O)(CC(=O)N(C)C[C@H]1O[C@@H](n2cnc3c(NC4CCCC4)nc(Cl)nc32)[C@H](O)[C@@H]1OC(=O)C(C)C)Oc1ccccc1 (stereo partly drawn) [O] | < 6.00
CN(C[C@H]1O[C@@H](n2cnc3c(NC4CCCC4)nc(Cl)nc32)[C@H](O)[C@@H]1O)C(=O)CP1(=O)OCCC(c2cccc(Cl)c2)O1 (stereo partly drawn) [Q] | < 6.00
CN(C[C@H]1O[C@@H](n2cnc3c(NC4CCCC4)nc(Cl)nc32)[C@H](O)[C@@H]1O)C(=O)CP1(=O)Nc2ccccc2CO1 (stereo partly drawn) [R] | < 6.00
Cc1cccc2c1NP(=O)(CC(=O)N(C)C[C@H]1O[C@@H](n3cnc4c(NC5CCCC5)nc(Cl)nc43)[C@H](O)[C@@H]1O)OC2 (stereo partly drawn) [S] | < 6.00
CN(C[C@H]1O[C@@H](n2cnc3c(NC4CCCC4)nc(Cl)nc32)[C@H](O)[C@@H]1O)C(=O)CP1(=O)OCc2ccccc2O1 (stereo partly drawn) [T] | < 6.00
CN(C[C@H]1O[C@@H](n2cnc3c(NC4CCCC4)nc(Cl)nc32)[C@H](O)[C@@H]1O)C(=O)CP(=O)(Oc1ccccc1)Oc1ccccc1 [U] | < 6.00
CN(C[C@H]1O[C@@H](n2cnc3c(NC4CCCC4)nc(Cl)nc32)[C@H](O)[C@@H]1O)C(=O)CP(=O)(O)Oc1ccccc1 [V] | < 6.00
CC(C)OC(=O)OCOP(=O)(CC(=O)N(C)C[C@H]1O[C@@H](n2cnc3c(NC4CCCC4)nc(Cl)nc32)[C@H](O)[C@@H]1O)OCOC(=O)OC(C)C [W] | < 6.00
CC(C)OC(=O)OCOP(=O)(O)CC(=O)N(C)C[C@H]1O[C@@H](n2cnc3c(NC4CCCC4)nc(Cl)nc32)[C@H](O)[C@@H]1O [X] | < 6.00
CCOC(=O)OCOP(=O)(CC(=O)N(C)C[C@H]1O[C@@H](n2cnc3c(NC4CCCC4)nc(Cl)nc32)[C@H](O)[C@@H]1O)OCOC(=O)OCC [Y] | < 6.00
CCOC(=O)OCOP(=O)(O)CC(=O)N(C)C[C@H]1O[C@@H](n2cnc3c(NC4CCCC4)nc(Cl)nc32)[C@H](O)[C@@H]1O [Z] | < 6.00
